Experimental data: US10130642B2, “Neprilysin inhibitors” (THERAVANCE BIOPHARMA R&D IP, LLC, priority 2011, dated 2018)

Molecular target: human NEP (Homo sapiens (Human), UniProt P08473)
Assay: In vitro enzyme inhibition assay, inhibitor potencies at human NEP
Conditions: for pKi: pKi values at human NEP, recombinant human NEP, fluorogenic peptide substrate, 37° C.
Method: The inhibitory activities of compounds at human and rat neprilysin (EC 3.4.24.11; NEP) and human angiotensin converting enzyme (ACE) were determined using in vitro assays as described below.
The assays were performed in 384-well white opaque plates at 37° C. using the fluorogenic peptide substrates at a concentration of 10 μM in Assay Buffer (NEP: 50 mM HEPES, pH 7.5, 100 mM NaCl, 0.01% polyethylene glycol sorbitan monolaurate (Tween-20), 10 μM ZnSO4; ACE: 50 mM HEPES, pH 7.5, 100 mM NaCl, 0.01% Tween-20, 1 μM ZnSO4).
Test compounds were assayed over the range of concentrations from 10 μM to 20 pM. Test compounds were added to the enzymes and incubated for 30 minute at 37° C. prior to initiating the reaction by the addition of substrate.
Inhibition constants were obtained by nonlinear regression of the data using the equation (GraphPad Software, Inc., San Diego, Calif.): ν=ν0/[1+(I/K′)] where ν is the reaction rate, ν0 is the uninhibited reaction rate, I is the inhibitor concentration and K′ is the apparent inhibition constant.

Sequence of human NEP (P08473 52-750): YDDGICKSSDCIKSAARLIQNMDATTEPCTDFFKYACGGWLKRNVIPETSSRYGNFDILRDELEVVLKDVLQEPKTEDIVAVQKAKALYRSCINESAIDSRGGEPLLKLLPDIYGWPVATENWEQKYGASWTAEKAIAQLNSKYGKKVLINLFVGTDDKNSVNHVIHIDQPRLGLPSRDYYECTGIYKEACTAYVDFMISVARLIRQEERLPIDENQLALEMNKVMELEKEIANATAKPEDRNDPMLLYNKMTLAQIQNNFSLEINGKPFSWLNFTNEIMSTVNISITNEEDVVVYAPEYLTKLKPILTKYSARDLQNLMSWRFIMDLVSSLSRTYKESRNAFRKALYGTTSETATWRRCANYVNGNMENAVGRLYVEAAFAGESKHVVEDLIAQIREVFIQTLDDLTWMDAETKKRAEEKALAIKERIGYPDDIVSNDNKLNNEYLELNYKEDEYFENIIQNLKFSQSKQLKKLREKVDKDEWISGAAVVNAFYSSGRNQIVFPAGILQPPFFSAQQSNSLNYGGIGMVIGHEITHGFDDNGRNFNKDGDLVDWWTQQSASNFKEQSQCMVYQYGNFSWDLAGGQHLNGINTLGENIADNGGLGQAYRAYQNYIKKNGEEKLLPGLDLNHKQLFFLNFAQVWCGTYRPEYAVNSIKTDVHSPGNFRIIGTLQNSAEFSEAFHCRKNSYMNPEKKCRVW

SMILES	Ki [nM]	pKi
O=C(NC(Cc1ccc(-c2ccccc2)cc1)C[C@H](CO)C(=O)O)c1cc(Cl)c2nc[nH]c2c1 (stereo partly drawn) [Example 4-36, (R)-5-Biphenyl-4-yl-4-[(7-chloro-3H-benzoimidazole-5-carbonyl)-amino]-2-hydroxymethyl-pentanoic acid]	1.26 to 10	
CC(=O)c1cc(C(=O)N[C@H](Cc2ccc(-c3ccccc3)cc2)C[C@@](C)(CO)C(=O)O)[nH]n1 [Example 6-16, (2S,4R)-4-[(5-Acetyl-2H-pyrazole-3-carbonyl)-amino]-5-biphenyl-4-yl-2-hydroxymethyl-2-methyl-pentanoic acid]	12.6 to 100	
C[C@@](CO)(C[C@@H](Cc1ccc(-c2cccc(F)c2)cc1)NC(=O)c1cc(C(=O)O)n[nH]1)C(=O)O [Example 7, 5-[(1R,3S)-3-Carboxy-1-(3′-fluorobiphenyl-4-ylmethyl)-4-hydroxy-3-methyl-butylcarbamoyl]-1H-pyrazole-3-carboxylic Acid]		≥9.0
O=C(N[C@H](Cc1ccc(-c2ccccc2)cc1)C[C@@H](CO)C(=O)O)c1c[nH]c(O)n1 [Example 4-31, (2S,4S)-5-Biphenyl-4-yl-4-[(2-hydroxy-1H-imidazole-4-carbonyl)-amino]-2-hydroxymethyl-pentanoic acid]	12.6 to 100	
CCCCc1cc(C(=O)N[C@H](Cc2ccc(-c3ccccc3)cc2)C[C@@H](CO)C(=O)O)[nH]n1 [Example 4-28, (2S,4S)-5-Biphenyl-4-yl-4-[(5-butyl-2H-pyrazole-3-carbonyl)-amino]-2-hydroxymethyl-pentanoic acid]	≤ 1	
O=C(N[C@H](Cc1ccc(-c2ccccc2F)cc1)C[C@@H](CO)C(=O)O)c1nc(Cl)n[nH]1 [Example 4-16, (2S,4S)-4-[(5-Chloro-2H-[1,2,4]triazole-3-carbonyl)-amino]-5-(2′-fluorobiphenyl-4-yl)-2-hydroxymethyl-pentanoic acid]	≤ 1	
O=C(N[C@H](Cc1ccc(-c2cccc(F)c2)cc1)C[C@@H](CO)C(=O)O)c1cc(-c2ccccc2Cl)n[nH]1 [Example 4-29, (2S,4S)-4-{[5-(2-Chlorophenyl)-2H-pyrazole-3-carbonyl]-amino}-5-(3′-fluorobiphenyl-4-yl)-2-hydroxymethyl-pentanoic acid]	≤ 1	
O=C(NC(Cc1ccc(-c2ccccc2)cc1)C[C@@H](CO)C(=O)O)c1cnc2nn[nH]c2c1 (stereo partly drawn) [Example 4-43, (S)-5-Biphenyl-4-yl-2-hydroxymethyl-4-[(1H-[1,2,3]triazolo[4,5-b]pyridine-6-carbonyl)-amino]-pentanoic acid]	1.26 to 10	
O=C(N[C@H](Cc1ccc(-c2cccc(F)c2)cc1)C[C@@H](CO)C(=O)O)c1cnn[nH]1 [Example 4-3, (2S,4S)-5-(3′-Fluorobiphenyl-4-yl)-2-hydroxymethyl-4-[(3H-[1,2,3]triazole-4-carbonyl)-amino]-pentanoic acid]	≤ 1	
O=C(N[C@H](Cc1ccc(-c2ccccc2)cc1)C[C@@H](CO)C(=O)O)c1cc(C(=O)N2CCCC2)n[nH]1 [Example 4-25, (2S,4S)-5-Biphenyl-4-yl-2-hydroxymethyl-4-{[5-(pyrrolidine-1-carbonyl)-2H-pyrazole-3-carbonyl]-amino}-pentanoic acid]	≤ 1	
COCCN(C)C(=O)c1cc(C(=O)N[C@H](Cc2ccc(-c3ccccc3)cc2)C[C@@H](CO)C(=O)O)[nH]n1 [Example 4-22]		8.0-8.9
O=C(N[C@H](Cc1ccc(-c2cccc(Cl)c2)cc1)C[C@@H](CO)C(=O)O)c1c[nH]nn1 [Example 4-9, (2S,4S)-5-(3′-Chloro-biphenyl-4-yl)-2-hydroxymethyl-4-[(1H-[1,2,3]triazole-4-carbonyl)-amino]-pentanoic acid]	≤ 1	
O=C(N[C@H](Cc1ccc(-c2cccc(Cl)c2)cc1)C[C@@H](CO)C(=O)O)c1ccc2nnn(O)c2c1 [Example 4-34, (2S,4S)-5-(3′-Chloro-biphenyl-4-yl)-4-[(3-hydroxy-3H-benzotriazole-5-carbonyl)-amino]-2-hydroxymethyl-pentanoic acid]	≤ 1	
O=C(N[C@H](Cc1ccc(-c2ccccc2)cc1)C[C@@H](CO)C(=O)O)c1nc(O)n[nH]1 [Example 4-14, (2S,4S)-5-Biphenyl-4-yl-2-hydroxymethyl-4-[(5-hydroxy-2H-[1,2,4]triazole-3-carbonyl)-amino]-pentanoic acid]	≤ 1	
Cc1n[nH]c(C(=O)N[C@H](Cc2ccc(-c3ccccc3)cc2)C[C@@H](CO)C(=O)O)n1 [Example 4-13, (2S,4S)-5-Biphenyl-4-yl-2-hydroxymethyl-4-[(5-methyl-2H-[1,2,4]triazole-3-carbonyl)-amino]-pentanoic acid]	12.6 to 100	
C[C@@](CO)(C[C@@H](Cc1ccc(-c2ccccc2)cc1)NC(=O)c1nc(Cl)n[nH]1)C(=O)O [Example 6-1, (2S,4R)-5-Biphenyl-4-yl-4-[(5-chloro-2H-[1,2,4]triazole-3-carbonyl)-amino]-2-hydroxymethyl-2-methyl-pentanoic acid]	1.26 to 10	

Now from value to compound, other results behind:

Ki [nM]	SMILES	pKi
≤ 1	C[C@@](CO)(C[C@@H](Cc1ccc(-c2ccccc2)cc1)NC(=O)c1cnc(O)nc1)C(=O)O [Example 6-18, (2S,4R)-5-Biphenyl-4-yl-2-hydroxymethyl-4-[(2-hydroxy-pyrimidine-5-carbonyl)-amino]-2-methyl-pentanoic acid]	
≤ 1	C[C@@](CO)(C[C@@H](Cc1ccc(-c2ccccc2F)cc1)NC(=O)c1c[nH]c(=O)o1)C(=O)O [Example 8-6, (2S,4R)-5-(2′-Fluoro-biphenyl-4-yl)-2-hydroxymethyl-2-methyl-4-[(2-oxo-2,3-dihydro-oxazole-5-carbonyl)-amino]-pentanoic acid]	
12.6 to 100	C[C@](CO)(C[C@@H](Cc1ccc(-c2ccccc2)cc1)NC(=O)c1cnn[nH]1)C(=O)O [Example 6-3, (2R,4R)-5-Biphenyl-4-yl-2-hydroxymethyl-2-methyl-4-[(3H-[1,2,3]triazole-4-carbonyl)-amino]-pentanoic acid]	
≤ 1	C[C@@](CO)(C[C@@H](Cc1ccc(-c2ccccc2F)cc1)NC(=O)c1coc(=O)[nH]1)C(=O)O [Example 8-5, (2S,4R)-5-(2′-Fluoro-biphenyl-4-yl)-2-hydroxymethyl-2-methyl-4-[(2-oxo-2,3-dihydro-oxazole-4-carbonyl)-amino]-pentanoic acid]	
≤ 1	C[C@@](CO)(C[C@@H](Cc1ccc(-c2ccccc2)cc1)NC(=O)c1cn(O)nn1)C(=O)O [Example 6-4, (2S,4R)-5-Biphenyl-4-yl-2-hydroxymethyl-4-[(1-hydroxy-1H-[1,2,3]triazole-4-carbonyl)-amino]-2-methyl-pentanoic acid]	
≤ 1	CC(C)(c1ccc(-c2ccccc2)cc1)[C@H](C[C@@H](CO)C(=O)O)NC(=O)c1cnn[nH]1 [Example 10-2, (2S,4S)-5-Biphenyl-4-yl-2-hydroxymethyl-5-methyl-4-[(3H-[1,2,3]triazole-4-carbonyl)-amino]-hexanoic acid]	
≤ 1	CC(C)(c1ccc(-c2ccccc2)cc1)[C@H](C[C@@H](CO)C(=O)O)NC(=O)c1cn(O)nn1 [Example 10-1, (2S,4S)-5-Biphenyl-4-yl-2-hydroxymethyl-4-[(1-hydroxy-1H-[1,2,3]triazole-4-carbonyl)-amino]-5-methyl-hexanoic acid]	
≤ 1	C[C@@](CO)(C[C@@H](Cc1ccc(-c2cccc(F)c2)cc1)NC(=O)c1cnn[nH]1)C(=O)O [Example 8-1, (2S,4R)-5-(3′-Fluorobiphenyl-4-yl)-2-hydroxymethyl-2-methyl-4-[(3H-[1,2,3]triazole-4-carbonyl)-amino]-pentanoic acid]	
